Assay results as given in patent US6630485B2, “p38 map kinase inhibitors” (Syntex (U.S.A.) LLC, priority 1997, dated 2003).
pIC50: −log10 of the molar value.

What was measured:
[1] = system: TNF-α; assay: Inhibition of LPS-induced TNF-α production in THP1 cells, in vitro assay (ELISA); type: cell-based; conditions: Homo sapiens; THP-1 cells, LPS 0.5 μg/ml, 2 h; read-out: IC50 (half-maximal reduction in 450 nm absorbance, TNF-α ELISA)
Experimental: The ability of the compounds of this invention to inhibit the TNF-α release was determined using a minor modification of the methods described in described in Blifeld, C. et al. Transplantation, Vol. 51(2), 498-503, (1991).
THP-1 cells were suspended in culture medium [RPMI (Gibco-BRL, Gailthersburg, Md.) containing 15% fetal bovine serum, 0.02 mM 2-mercaptoethanol], at a concentration of 2.5×10^6 cells/ml and then plated in 96 well plate (0.2 ml aliquots in each well). Test compounds were dissolved DMSO and then diluted with the culture medium such that the final DMSO concentration was 5%. 20 μl aliquots of test solution or only medium with DMSO (control) were added to each well. The cells were incubated for 30 min., at 37° C. LPS (Sigma, St. Louis, Mo.) was added to the wells at a final concentration of 0.5 μg/ml, and cells were incubated for an additional 2 h. At the end of the incubation period, culture supernatants were collected and the amount of TNF-α present was determined using an ELISA assay as described below.
The amount of human TNF-α present was determined by a specific trapping ELISA assay using two anti-TNF-α antibodies (2TNF-H22 and 2TNF-H34) described in Reimund, J. M., et al. GUT Vol. 39(5), 684-689 (1996).
Polystyrene 96-well plates were coated with 50 μl per well of antibody 2TNF-H22 in PBS (10 μg/ml) and incubated in a humidified chamber at 4° C. overnight. The plates were washed with PBS and then blocked with 5% nonfat-dry milk in PBS for 1 hour at room temperature and washed with 0.1% BSA (bovine serum albumin) in PBS.
TNF standards were prepared from a stock solution of human recombinant TNF-α (R&D Systems, Minneapolis, Minn.). The concentration of the standards in the assay began at 10 ng/ml followed by 6 half log serial dilution's.
25 μl aliquots of the above culture supernatants or TNF standards or only medium (control) were mixed with 25 μl aliquots of biotinylated monoclonal antibody 2TNF-H34 (2 μg/ml in PBS containing 0.1% BSA) and then added to each well. The samples were incubated for 2 h at room temperature with gentle shaking and then washed 3 times with 0.1% BSA in PBS. 50 μl of peroxidase-streptavidin (Zymed, S. San Francisco, Calif.) solution containing 0.416 μg/ml of peroxidase-streptavidin and 0.1% BSA in PBS was added to each well. The samples were incubated for an additional 1 h at room temperature and then washed 4 times with 0.1% BSA in PBS. 50 μl of O-phenylenediamine solution (1 μg/ml O-phenylene-diamine and 0.03% hydrogen peroxide in 0.2M citrate buffer pH 4.5) was added to each well and the samples were incubated in the dark for 30 min., at room temperature. Optical density of the sample and the reference were read at 450 nm and 650 nm, respectively. TNF-α levels were determined from a graph relating the optical density at 450 nm to the concentration used.
The IC50 value was defined as the concentration of the test compound corresponding to half-maximal reduction in 450 nm absorbance.

[2] = system: TNF-α; assay: Inhibition of LPS-induced TNF-α production in mice, in vivo assay; conditions: female BALB/c mice, dosed orally at 30 mg, 30 min before 20 μg LPS i.p., serum TNF-α after 1.5 h
Experimental: The ability of the compounds of this invention to inhibit the TNF-α release, in vivo, was determined using a minor modification of the methods described in described in Zanetti, G.; Heumann, D., et. al., “Cytokine production after intravenous or peritoneal Gram-negative bacterial challenge in mice,” J. Immunol., 148, 1890, (1992) and Sekut, L., Menius, J. A., et. al., “Evaluation of the significance of elevated levels of systemic and localized tumor necrosis factor in different animal models of inflammation,” J. Lab. Clin. Med., 124, 813, (1994).
Female BALB/c mice weighing 18-21 grams (Charles River, Hollister, Calif.) were acclimated for one week. Groups containing 8 […] each were dosed orally either with the test compounds dissolved in an aqueous vehicle containing 0.9% sodium chloride, 0.5% sodium carboxymethyl-cellulose, 0.4% polysorbate 80, 0.9% benzyl alcohol (CMC vehicle) or only vehicle (control group). After 30 min., the mice were injected intraperitoneally with 20 μg of LPS (Sigma, St. Louis, Mo.). After 1.5 h, the mice were sacrificed by CO2 inhalation and blood was harvested by cardiocentesis. Blood was clarified by centrifugation at 15,600×g for 5 min., and sera were transferred to clean tubes and frozen at −20° C. until analyzed for TNF-α by ELISA assay (Biosource International, Camarillo, Calif.) following the manufacturer's protocol.
The TNF-α inhibitory activity of test materials, i.e., the measure of the TNF-α content in the test group relative to the vehicle treated group (control group) at 30 mg was: […]

[3] = target: T1, p38 MAP kinase (Homo sapiens, UniProt Q16539); assay: Inhibition of p-38 (MAP) kinase, in vitro assay (33P transfer from γ-33P-ATP to Myelin Basic Protein); type: biochemical; conditions: phosphorylated recombinant p38 MAP kinase, MBP substrate, 30° C., read-out: IC50 (concentration causing 50% inhibition of the p-38 enzyme)
T1 construct: made in house; host or cells: E. coli
T1 sequence (Q16539 whole entry): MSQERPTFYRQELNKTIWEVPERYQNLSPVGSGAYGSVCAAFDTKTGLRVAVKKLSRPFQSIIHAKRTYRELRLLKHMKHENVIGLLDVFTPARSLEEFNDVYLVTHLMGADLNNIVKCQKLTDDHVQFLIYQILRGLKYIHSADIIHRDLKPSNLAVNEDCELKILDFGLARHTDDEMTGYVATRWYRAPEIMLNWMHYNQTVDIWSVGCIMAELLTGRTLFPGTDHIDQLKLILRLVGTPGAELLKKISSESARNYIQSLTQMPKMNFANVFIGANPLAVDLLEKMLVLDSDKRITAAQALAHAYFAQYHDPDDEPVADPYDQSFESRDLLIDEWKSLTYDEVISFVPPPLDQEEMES
Experimental: The p-38 MAP kinase inhibitory activity of compounds of this invention in vitro was determined by measuring the transfer of the γ-phosphate from γ-^33P-ATP by p-38 kinase to Myelin Basic Protein (MBP), using the a minor modification of the method described in Ahn, N. G.; et al. J. of Biol. Chem. Vol. 266(7), 4220-4227, (1991)
The phosphorylated form of the recombinant p38 MAP kinase was expressed with SEK-1 and MEKK in E. coli (see, Khokhlatchev, A. et al. J. of Biol. Chem. Vol. 272(17), 11057-11062, (1997) and then purified by affinity chromatography using a Nickel column.
The phosphorylated p38 MAP kinase was diluted in kinase buffer (20 mM 3-(N-morpholino)propanesulfonic acid, pH 7.2, 25 mM β-glycerol phosphate, 5 mM ethylene glycol-bis(beta-aminoethyl ether)-N,N,N′,N′-tetraacetic acid, 1 mM sodium vanadate, 1 mM dithiothreitol, 40 mM magnesium chloride). Test compound dissolved in DMSO or only DMSO (control) was added and the samples were incubated for 10 min. at 30° C. The kinase reaction was initiated by the addition of a substrate cocktail containing MBP and γ-^33P-ATP. After incubating for an additional 20 min. at 30° C., the reaction was terminated by adding 0.75% phosphoric acid. The phosphorylated MBP was then separated from the residual γ-^33P-ATP using a phosphocellulose membrane (Millipore, Bedfrod, Mass.) and quantitated using a scintillation counter (Packard, Meriden, Conn.).
The p-38 inhibitory activities (expressed as IC50, the concentration causing 50% inhibition of the p-38 enzyme being assayed) of some compounds of the invention is: […]

On1c(-c2ccncc2)c(-c2ccc(F)cc2)c2ncccc21 [compound 1, 3-(4-Fluorophenyl)-1-hydroxy-2-(pyridin-4-yl)-1H-pyrrolo[3,2-b]pyridine]
melting point: 225 to 228 °C

COn1c(-c2ccncc2)c(-c2ccc(F)cc2)c2ncccc21 [compound 2, 3-(4-Fluorophenyl)-1-methoxy-2-(pyridin-4-yl)-1H-pyrrolo[3,2-b]pyridine]
melting point: 168 to 171.5 °C
pIC50 [1]: 6.34
% Inhibition (TNF-α content in test group relative to vehicle treated group) [2]: 75%
pIC50 [3]: 7.17

Fc1ccc(-c2c(-c3ccncc3)n(OCCN3CCOCC3)c3cccnc23)cc1 [compound 3, 3-(4-Fluorophenyl)-1-[2-(morpholin-4-yl)ethoxy]-2-(pyridin-4-yl)-1H-pyrrolo[3,2-b]pyridine]
melting point: 139 to 141 °C
% Inhibition (TNF-α content in test group relative to vehicle treated group) [2]: 56%
pIC50 [3]: 6.66

Fc1ccc(-c2c(-c3ccncc3)n(OCCN3CCCCC3)c3cccnc23)cc1 [compound 4, 3-(4-Fluorophenyl)-1-[2-(piperidin-1-yl)ethoxy]-2-(pyridin-4-yl)-1H-pyrrolo[3,2-b]pyridine]
melting point: 95.9 to 98.7 °C

Fc1ccc(-c2c(-c3ccncc3)n(OCCN3CCCC3)c3cccnc23)cc1 [compound 5, 3-(4-fluorophenyl)-2-(pyridin-4-yl)-1-[2-(pyrrolidin-1-yl)ethoxy]-1H-pyrrolo[3,2-b]pyridine]
melting point: 123 to 129 °C
pIC50 [1]: 6.92
pIC50 [3]: 6.61

Fc1ccc(-c2c(-c3ccncc3)[nH]c3cccnc23)cc1 [compound 6, 3-(4-Fluorophenyl)-2-(pyridin-4-yl)-1H-pyrrolo[3,2-b]pyridine]
melting point: > 285 °C
% Inhibition (TNF-α content in test group relative to vehicle treated group) [2]: 68%

CCn1c(-c2ccncc2)c(-c2ccc(F)cc2)c2ncccc21 [compound 7, 1-Ethyl-3-(4-fluorophenyl)-2-(pyridin-4-yl)-1H-pyrrolo[3,2-b]pyridine]
melting point: 204 to 206 °C

Fc1ccc(-c2c(-c3ccncc3)n(CCN3CCOCC3)c3cccnc23)cc1 [compound 8, 3-(4-Fluorophenyl)-2-(pyridin-4-yl)-1-[2-(morpholin-4-yl)ethyl]-1H-pyrrolo[3,2-b]-pyridine]
melting point: 171.2 to 173 °C

Fc1ccc(-c2c(-c3ccncc3)n(CCN3CCCCC3)c3cccnc23)cc1 [compound 9, 3-(4-Fluorophenyl)-1-[2-(piperidin-1-yl)ethyl]-2-(pyridin-4-yl)-1H-pyrrolo[3,2-b]pyridine]
melting point: 148.1 to 153.3 °C
pIC50 [1]: 6.52

Fc1ccc(-c2c(-c3ccncc3)oc3cccnc23)cc1 [compound 101, 3-(4-Fluorophenyl)-2-(pyridin-4-yl)-furo[3,2-b]pyridine]
melting point: 141 to 143 °C
% Inhibition (TNF-α content in test group relative to vehicle treated group) [2]: 86%
pIC50 [3]: 7.07

Fc1ccc(-c2c(-c3ccnc(Cl)n3)oc3cccnc23)cc1 [compound 102, 2-(2-Chloropyrimidin-4-yl)-3-(4-fluorophenyl)-furo[3,2-b]pyridine]
melting point: 224.8 to 225.2 °C

Nc1nccc(-c2oc3cccnc3c2-c2ccc(F)cc2)n1 [compound 103, 2-(2-Aminopyrimidin-4-yl)-3-(4-fluorophenyl)-furo[3,2-b]pyridine]
melting point: 252.9 to 253.7 °C

Fc1ccc(-c2c(-c3ccncc3)[nH]c3ccncc23)cc1 [compound 105, 3-(4-Fluorophenyl)-2-(pyridin-4-yl)-1H-pyrrolo[3,2-c]pyridine]
melting point: 256 to 257 °C

Fc1ccc(-c2c(-c3ccncc3)[nH]c3nccnc23)cc1 [compound 106, 7-(4-Fluorophenyl)-6-(pyridin-4-yl)-5H-pyrrolo[2,3-b]pyrazine]
pIC50 [1]: 5.96
pIC50 [3]: 6.92

N#CCCCn1c(-c2ccncc2)c(-c2ccc(F)cc2)c2nccnc21 [compound 108]
pIC50 [1]: 5.05
pIC50 [3]: 6.13

OCCNc1cc(-c2[nH]c3nccnc3c2-c2ccc(F)cc2)ccn1 [compound 112]
pIC50 [1]: 6.62
pIC50 [3]: 7.46
